Source: patent publication US6642003B2, “Human glucose-dependent insulin-secreting cell line” (Cedars-Sinai Medical Center, priority 2001, dated 2003)

Legend:
ARIP cells [1] = test: Insulin release into culture medium (RIA), ARIP cells; type: cell-based, rat
Description: Rat (ARIP) and human (PANC-1) ductal cell lines were respectively a gift from Dr. J. M. Egan (National Institute on Aging, Baltimore, Md.) or purchased from ATCC (American Type Culture Collection; Manassas, Va.). ARIP cells were cultured in F12 medium (Gibco-BRL, Gaithersburg; Md.) containing 100 μg/ml penicillin, 50 μg/ml streptomycin and 10% fetal calf serum (FCS; Gibco-BRL) at 37° C. under a humidified condition of 95% air and 5% CO2. PANC-1 cells were cultured in DMEM medium supplemented with antibiotics and FCS, as indicated for F12 medium. Treatment with human GLP-1 (H-6795, Bachem; King of Prussia, Pa.) was carried out using cells grown to 80% of confluence, after washing the cell layer with serum-free medium and a “wash-out” incubation for 6-h with serum free medium. To determine dose response to GLP-1, cells were cultured with fresh serum-free medium containing increasing concentration of GLP-1 (0.1, 1, 10, 20 nM), or vehicle alone. At the completion of the experiment, media and cells were collected. To determine the time course of response, cells were cultured in serum-free medium with GLP-1 (10 nM) for 0, 12, 24, 48, 72 or 96 h. Control dishes were cultured with vehicle alone, or with the peptide receptor antagonist of GLP-1, Exendin-9 (100 nM) for 72 h (gift Dr. J. M. Egan). The glucose concentration in the culture medium was 12 mM for both cell lines.
PANC-1 (parental, IDX-1-transfected, and neomycin-transfected) cells and ARIP (only parental) cells were plated at density of 10^6 cells/well in a 6 well plate. Once the cells reached 80% of confluence, they were washed with serum-free medium containing 12 mM glucose and exposed to fresh serum-free medium for increasing length of time (0, 12, 24, 48, 72, 96 h) in the presence of various concentrations of GLP-1 (0.1, 1, 10, 20 nM) or vehicle. Glucose-dependent insulin secretion was evaluated by culturing the cells in the presence of a determined concentration of GLP-1 (10 nM for 72 h) with increasing concentration of glucose in the culture medium ([…]). Insulin released into the medium was measured by RIA (Linco Research Inc.; St. Charles, Mass.). Total insulin accumulation in the culture medium was then normalized for total cellular protein content per each Individual cultures.
Total cellular protein content was measured by utilizing the Bradford method (Bio-Rad; Richmond, Calif.). The amount of proteins measured was used as a correction factor for determining the relative amount of medium to be assayed for each individual RIA for insulin.

ARIP cells [2] = test: Flow cytometric (FACS) analysis for insulin, ARIP cells; type: cell-based, rat; conditions: GLP-1 10 nM, 72 hours
Description: For fluorescence-activated cells sorting (FACS) analysis, cells were cultured in the presence of GLP-1 (10 nM), or vehicle, for 72 h, then washed with cold PBS (pH 7.4; three times) and incubated overnight, on ice, in PBS with 2% paraformaldehyde. After centrifugation, the cell pellet was resuspended in 400 μl of cold 0.1% Triton diluted in FACS buffer (PBS with 2% FCS). After several centrifugation and washes, the cells were resuspended in the assay buffer with of 10 μl of fluorescent-conjugated insulin antibody (Cat N. FM205, FITC: Chromaprobe, Inc; Mountain View, Calif.), in the presence of 10 μl of blocking antibody (anti-mouse IgG; Organon Teknika-Cappel, West Chester, Pa.). Control samples were treated with PBS, without the primary antibody, and then incubated with an […] FITC-conjugated control antibody (murine IgG; Chromaprobe Inc., Mountain View, Calif.). Flow cytometric analysis was performed with a FACScan[R] cytometer, using the LYSYS II program, and by fluorescence microscopy, as is well known in the art. See, e.g., E. Elstner, M. Linker-Israeli, J. Le, T. Umiel, P. Michl, J. W. Said, L. Binderup, J. C. […]

PANC-1/IDX-1 cells = test: Immunocytochemistry and immunofluorescence for insulin, PANC-1/IDX-1 cells; type: cell-based, human; conditions: GLP-1 10 nM, 72 h
Description: PANC-1 cells were transfected with a pcDNA3 construct (Invitrogen; Carlsbad, Calif.) harboring the wild-type full-length IDX-1 cDNA using LipoTAXI (Catalog N. 204110; Mammalian Transfection Kit, Stratagene; La Jolla, Calif.). Control cells were transfected with the vector alone. The selection of positive (i.e. transfected) cells was carried out by culturing the cells in the presence of 400 μg/ml of G418 sulfate (GN-04, Omega; Tarzana, Calif.).
Cells were cultured on monocoated chamber slides (Nalge Nunc International; Naperville, Ill.) in the presence of GLP-1 (10 nM), or vehicle, for 72 h.
For the detection of insulin, cells were washed and fixed with 3% paraformaldehyde for 4 h, at room temperature in PBS, solubilized with 0.1% (vol/vol) Triton X-100 in PBS for 5 min. Cells were then incubated sequentially with an anti-insulin antibody and a secondary antibody, as described by the manufacturer (Biomeda Corp.; Foster City, Calif.). The cells were examined using a Ziess Axiophoto microscope (New York, N.Y.).
Insulin immunofluoresce, for co-immunostaining with IDX-1, was carried on using the […], while the secondary antibody was a goat anti-guinea pig IgG (Molecular Probes, Inc.). The cells were examined using a using a fluorescent microscope (E-800; Nikon, Tokyo).

[3] = serum-free medium, 12 mM glucose, 72 h

## glucagon-like peptide-1 [GLP-1]
ARIP cells [1]; GLP-1 10 nM for 72 h
  lowest concentration of glucose required to induce the secretion of insulin: 3 mM
ARIP cells [1]; GLP-1 10 nM for 72 h, increasing glucose
  glucose dependence of insulin release: release insulin in a glucose-dependent manner
ARIP cells [1]; GLP-1 10 nM, 12 mM glucose
  time of maximal insulin secretion: 48 h
  time of plateau of insulin secretion: 72 h
ARIP cells [1]; [3]
  GLP-1 concentration at plateau of insulin accumulation in the culture medium: 20 nM
  minimum concentration of GLP-1 required to transform ARIP ductal cells into insulin producing cells: 1 nM
ARIP cells [2]
  cells reacting with anti-human insulin antibody: 72.6%
PANC-1/IDX-1 cells
  insulin immunostaining: capable of synthesizing insulin
PANC-1/IDX-1 cells; double immunofluorescence
  IDX-1 containing cells also positive for intracellular insulin: Approximately 85%
  weakly IDX-1 positive cells not stained by anti-insulin antibody: ~20%
